Assay results from PubChem BioAssay AID330 (DTP/NCI, 2004).
Values joined by “and” are separate entries in the source; they are usually repeats but may differ in a detail not shown here. Equal entries are not always repeated. Inconclusive results and toxic doses are left out.

Test system: P388 leukemia ip, CD2F1 mice, survival T/C
Experiment: NCI In Vivo Anticancer Drug Screen. Data for tumor model P388 Leukemia (intraperitoneal) in CD2F1 (CDF1) mice
Settings: endpoint: median survival time, higher = longer survival
How it was run: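 Mice carrying the transplanted tumor received test compound or vehicle. Survival was recorded in each group, and the value is the treated-group measurement divided by that of the vehicle-treated control group.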

[1] = dose: 7.5 mg/kg/injection, schedule: Q01DX005 (ip), vehicle: Klucel (hydroxypropylcellulose) (HPC)
[2] = dose: 15.0 mg/kg/injection, schedule: Q01DX005 (ip), vehicle: Klucel (hydroxypropylcellulose) (HPC)
[3] = dose: 50.0 mg/kg/injection, schedule: Q01DX005 (ip), vehicle: Klucel (hydroxypropylcellulose) (HPC)
[4] = dose: 100.0 mg/kg/injection, schedule: Q01DX005 (ip), vehicle: Klucel (hydroxypropylcellulose) (HPC)
[5] = dose: 200.0 mg/kg/injection, schedule: Q01DX005 (ip), vehicle: Klucel (hydroxypropylcellulose) (HPC)
[6] = dose: 60.0 mg/kg/injection, schedule: Q01DX005 (ip), vehicle: saline with Tween-80
[7] = dose: 120.0 mg/kg/injection, schedule: Q01DX005 (ip), vehicle: saline with Tween-80
[8] = dose: 50.0 mg/kg/injection, schedule: Q01DX005 (ip), vehicle: saline with Tween-80
[9] = dose: 100.0 mg/kg/injection, schedule: Q01DX005 (ip), vehicle: saline with Tween-80
[10] = dose: 200.0 mg/kg/injection, schedule: Q01DX005 (ip), vehicle: saline with Tween-80

With CCOc1c(N=Nc2ccccc2O)c(C)nn1C(N)=S the T/C (dose: 3.75 mg/kg/injection, schedule: Q01DX005 (ip), vehicle: Klucel (hydroxypropylcellulose) (HPC)) was 103 % of control, the T/C [1] was 102 % of control and the T/C [2] was 104 % of control and 95 % of control.

With CC1CC(=O)c2c(O)ccc(Cl)c21 (configuration not stated) the T/C [3] was 106 % of control, the T/C [4] was 104 % of control and the T/C [5] was 100 % of control.

In the case of Clc1ccc2oc(N3CCOCC3)nc2c1, the T/C [6] is reported as 103 % of control, the T/C [7] is reported as 96 % of control and the T/C (dose: 240.0 mg/kg/injection, schedule: Q01DX005 (ip), vehicle: saline with Tween-80) is reported as 87 % of control.

Cc1nccc(N[N+](=O)[O-])c1C was tested, and the T/C (dose: 12.5 mg/kg/injection, schedule: Q01DX009 (ip), vehicle: other) was 100 % of control, the T/C (dose: 25.0 mg/kg/injection, schedule: Q01DX009 (ip), vehicle: other) was 93 % of control and the T/C (dose: 50.0 mg/kg/injection, schedule: Q01DX009 (ip), vehicle: other) was 117 % of control. For the same compound, the T/C (dose: 100.0 mg/kg/injection, schedule: Q01DX009 (ip), vehicle: other) was 100 % of control and the T/C (dose: 200.0 mg/kg/injection, schedule: Q01DX009 (ip), vehicle: other) was 103 % of control.

In the case of CC(C)(C)[Si](OC(=O)CCCc1ccc(N(CCCl)CCCl)cc1)(c1ccccc1)c1ccccc1, the T/C (dose: 25.0 mg/kg/injection, schedule: Q01DX005 (ip), vehicle: saline with Tween-80) is reported as 123 % of control, the T/C [8] is reported as 155 % of control and 175 % of control and the T/C [9] is reported as 255 % of control.

For OCC1OC(n2cnc3c(I)ncnc32)C(O)C1O (configuration not stated), the T/C [8] was 100 % of control, the T/C [9] was 103 % of control and the T/C [10] was 101 % of control.

With N#Cc1c(C(F)(F)F)cc(-c2cccs2)nc1SC(C(=O)Nc1c(F)cccc1F)c1ccccc1 (configuration not stated) the T/C [3] was 94 % of control, the T/C [4] was 94 % of control and the T/C [5] was 94 % of control.

For O/N=C1/C(=N/O)N(c2ccccc2)CN1c1ccccc1, the T/C [1] was 102 % of control, the T/C [2] was 95 % of control and the T/C (dose: 30.0 mg/kg/injection, schedule: Q01DX005 (ip), vehicle: Klucel (hydroxypropylcellulose) (HPC)) was 98 % of control.

For O=c1[nH]c2ncccc2c(O)c1-c1ccccc1, the T/C (dose: 50.0 mg/kg/injection, schedule: Q01DX009 (ip), vehicle: saline) was 107 % of control, the T/C (dose: 100.0 mg/kg/injection, schedule: Q01DX009 (ip), vehicle: saline) was 96 % of control and the T/C (dose: 200.0 mg/kg/injection, schedule: Q01DX009 (ip), vehicle: saline) was 96 % of control.

For O=C(/C=C/c1c[nH]c2ccccc12)c1ccccc1[N+](=O)[O-], the T/C [6] was 94 % of control and the T/C [7] was 90 % of control.

In the case of CCCCCCCCCCCCCCCCSC1=CC(=O)C(OC)=C(OC)C1=O, the T/C (dose: 2.0 mg/kg/injection, schedule: Q01DX009 (ip), vehicle: Klucel (hydroxypropylcellulose) (HPC)) is reported as 97 % of control, the T/C (dose: 8.0 mg/kg/injection, schedule: Q01DX009 (ip), vehicle: Klucel (hydroxypropylcellulose) (HPC)) is reported as 98 % of control and the T/C (dose: 16.0 mg/kg/injection, schedule: Q01DX009 (ip), vehicle: Klucel (hydroxypropylcellulose) (HPC)) is reported as 100 % of control. The T/C (dose: 32.0 mg/kg/injection, schedule: Q01DX009 (ip), vehicle: Klucel (hydroxypropylcellulose) (HPC)) was 105 % of control.

With OC(COc1c2ccccc2nc2ccccc12)CN1CCN(c2cccc(Cl)c2)CC1 (configuration not stated) the T/C [8] was 90 % of control, the T/C [9] was 88 % of control and the T/C [10] was 90 % of control.

With ON(CCc1ccncc1)CCc1ccncc1 the T/C [8] was 100 % of control, the T/C [9] was 98 % of control and the T/C [10] was 100 % of control.

With Cn1c(=O)c2c(nnc(-c3ccc(Cl)cc3)[n+]2[O-])n(C)c1=O the T/C (dose: 100.0 mg/kg/injection, schedule: Q01DX001 (ip), vehicle: Klucel (hydroxypropylcellulose) (HPC)) was 106 % of control.
